Results as given in US9012441B2, “Therapeutic compounds” (Gilead Sciences, Inc., priority 2013, dated 2015).

Key:
HIV-IIIb = experiment: Test A: Antiviral Assay in MT4 Cells; assay type: cell-based, HIV-1; details: Human immunodeficiency virus 1, MT4, 120 h, read-out: % Inh @ 2 uM (percent inhibition of virus-induced cell killing); 2 uM test compound; MT-4 cells infected with HIV-IIIb, 5 days, CellTiter-Glo
Description: (§1) Test A: Antiviral Assay in MT4 Cells For the antiviral assay, 40 μL of 1× test concentration of 3-fold serially diluted compound in culture medium with 10% FBS was added to each well of a 384-well plate (10 concentrations) in quadruplicate. MT-4 cells were next mixed with HIV-IIIb at an m.o.i of 0.003 for 1 hour, after which time 35 μL of virus/cell mixture (2000 cells) was immediately added to each well containing 40 μL of diluted compound. The plates were then incubated at 37° C. for 5 days. After 5 days of incubation, 25 μl of 2× concentrated CellTiter-Glo™ Reagent (catalog #G7571, Promega Biosciences, Inc., Madison, Wis.) was added to each well containing MT-4 cells. Cell lysis was carried out by incubating at room temperature for 10 min and then chemiluminescence was read. […] Accordingly, the compounds disclosed herein may be useful for treating an HIV virus infection, treating AIDS or for delaying the onset of AIDS or ARC symptoms.

[1] = Test B: Cytotoxicity Assay (uninfected MT-4 cells); assay type: cell-based; details: human, same protocol as Test A, read-out: MT4-CC50
Description: as §1, with “For” for “Test A: Antiviral Assay in MT4 Cells For”, “Test B: Cytotoxicity Assay Compound cytotoxicity and” for “Accordingly,”, “corresponding CC50 values were determined using” for “compounds disclosed herein may be useful for treating an HIV virus infection, treating AIDS or for delaying”, “same protocol as described in the antiviral assay (Test A) except that uninfected cells were used.” for “onset of AIDS or ARC symptoms.”

[2] = from C=CCc1c(CC(=O)NN(Cc2cc(F)cc(Br)c2)C(=O)N(C)c2ccc(Cl)cc2)c2ccccc2n1C(=O)OC(C)(C)C; cc_pd bond; Pd(OAc)2; acetonitrile; 3.1 mM; 110.0 °C; 1.0 h

SMILES	inhibition at 2 µM (HIV-IIIb) [%]	CC50 at 5 days [1] [µM]	ring closure, yield of all isomers [2] [%]
COc1ccc(N(C)C(=O)[C@@H]2Cc3cccc(c3)CCS(=O)(=O)Cc3[nH]c4ccc(F)cc4c3CC(=O)N2)cc1 [Example 10]	1.8	> 53	–
COc1ccc(N(C)C(=O)[C@@H]2Cc3cccc(c3)C/C=C/c3[nH]c4ccc(F)cc4c3CC(=O)N2)cc1 [Example 12]	85.5	31.8	–
COc1ccc(N(C)C(=O)[C@@H]2Cc3cc(F)cc(c3)C/C=C/c3[nH]c4ccccc4c3CC(=O)N2)cc1 [Example 27, (4S,12E)-8-fluoro-N-(4-methoxyphenyl)-N-methyl-2-oxo-2,3,4,5,11,14-hexahydro-1H-6,10-(metheno)azacyclopentadecino[5,4-b]indole-4-carboxamide]	92.5	18.9	–
COc1ccc(N(C)C(=O)[C@@H]2Cc3cccc(c3)/C=C\c3[nH]c4ccccc4c3CC(=O)N2)cc1 [Example 17, (4S,11Z)—N-(4-methoxyphenyl)-N-methyl-2-oxo-1,2,3,4,5,13-hexahydro-6,10-(metheno)azacyclotetradecino[5,4-b]indole-4-carboxamide]	4.7	> 53	–
COc1ccc(N(C)C(=O)[C@@H]2Cc3cccc(c3)CCSCc3[nH]c4ccc(F)cc4c3CC(=O)N2)cc1 [Example 7]	26.3	> 53	–
COc1ccc(N(C)C(=O)[C@@H]2Cc3cccc(c3)/C=C/Cc3[nH]c4ccccc4c3CC(=O)N2)cc1 [Example 22, (4S,11E)-N-(4-methoxyphenyl)-N-methyl-2-oxo-2,3,4,5,13,14-hexahydro-1H-6,10-(metheno)azacyclopentadecino[5,4-b]indole-4-carboxamide]	64.5	> 52.6	–
COc1ccc(N(C)C(=O)[C@@H]2Cc3cccc(c3)CS(=O)(=O)Cc3[nH]c4ccccc4c3CC(=O)N2)cc1 [Example 16, (10S)—N-(4-methoxyphenyl)-N-methyl-12-oxo-9,10,11,12,13,18-hexahydro-1H-8,4-(metheno)[1,7]thiazacyclopentadecino[3,4-b]indole-10(3H)-carboxamide 2,2-dioxide]	67.8	> 53	–
COc1ccc(N(C)C(=O)[C@@H]2Cc3cc(F)cc(c3)/C=C\Cc3[nH]c4ccccc4c3CC(=O)N2)cc1 [Example 26, (4S,11Z)-8-fluoro-N-(4-methoxyphenyl)-N-methyl-2-oxo-2,3,4,5,13,14-hexahydro-1H-6,10-(metheno)azacyclopentadecino[5,4-b]indole-4-carboxamide]	79.9	34.8	–
COc1ccc(N(C)C(=O)[C@@H]2Cc3cccc(c3)CCSCc3[nH]c4ccc(O)cc4c3CC(=O)N2)cc1 [Example 6]	94.3	49.2	–
COc1ccc(N(C)C(=O)[C@@H]2Cc3cccc(c3)C/C=C\c3[nH]c4ccc(F)cc4c3CC(=O)N2)cc1 [Example 14]	95.6	44.3	–
COc1ccc(N(C)C(=O)[C@@H]2Cc3cccc(c3)CCS(=O)(=O)Cc3[nH]c4ccccc4c3CC(=O)N2)cc1 [Example 8, (11S)—N-(4-methoxyphenyl)-N-methyl-13-oxo-3,4,10,11,12,13,14,19-octahydro-1H-9,5-(metheno)[1,7]thiazacyclohexadecino[3,4-b]indole-11-carboxamide 2,2-dioxide]	0.6	> 53	–
COc1ccc(N(C)C(=O)[C@@H]2Cc3cccc(c3)CCc3[nH]c4ccccc4c3CC(=O)N2)cc1 [Example 3]	99.2	> 53	–
COc1ccc(N(C)C(=O)[C@@H]2Cc3cccc(c3)CCS(=O)(=O)Cc3[nH]c4ccc(O)cc4c3CC(=O)N2)cc1 [Example 9]	0.7	> 53	–
CN(C(=O)[C@@H]1Cc2cccc(c2)CCc2[nH]c3ccc(=O)[nH]c3c2CC(=O)N1)c1ccc(Cl)cc1 [Example 29, (14S)—N-(4-chlorophenyl)-N-methyl-2,16-dioxo-1,2,5,6,7,13,14,15,16,17-decahydro-12,8-(metheno)pyrido[2′,3′:4,5]pyrrolo[3,2-d]azacyclotetradecine-14-carboxamide]	87.6	> 53	–
CN(C(=O)N1Cc2cc(F)cc(c2)/C=C\Cc2c(c3ccccc3n2C(=O)OC(C)(C)C)CC(=O)N1)c1ccc(Cl)cc1	–	–	23.6
COc1ccc(N(C)C(=O)[C@@H]2Cc3cc(F)cc(c3)CCCc3[nH]c4ccccc4c3CC(=O)N2)cc1 [Example 23K, (4S)-8-fluoro-N-(4-methoxyphenyl)-N-methyl-2-oxo-2,3,4,5,11,12,13,14-octahydro-1H-6,10-(metheno)azacyclopentadecino[5,4-b]indole-4-carboxamide]	94	> 50.3	–
CN(C(=O)[C@@H]1Cc2cccc(c2)CCCc2[nH]c3ccc(=O)[nH]c3c2CC(=O)N1)c1ccc(Cl)cc1 [Example 30, (15S)—N-(4-chlorophenyl)-N-methyl-2,17-dioxo-1,5,6,7,8,14,15,16,17,18-decahydro-2H-13,9-(metheno)pyrido[2′,3′:4,5]pyrrolo[3,2-d]azacyclopentadecine-15-carboxamide]	0	24.4	–
CN(Cc1ccccc1)C(=O)[C@@H]1Cc2cc(F)cc(c2)CCCc2[nH]c3ccccc3c2CC(=O)N1 [Example 25, (4S)—N-benzyl-8-fluoro-N-methyl-2-oxo-2,3,4,5,11,12,13,14-octahydro-1H-6,10-(metheno)azacyclopentadecino[5,4-b]indole-4-carboxamide]	84.9	52.3	–
COc1ccc(N(C)C(=O)[C@@H]2Cc3cccc(c3)CS(=O)(=O)c3[nH]c4ccccc4c3CC(=O)N2)cc1 [Example 21, (9S)—N-(4-methoxyphenyl)-N-methyl-11-oxo-8,9,10,11,12,17-hexahydro-7,3-(metheno)[1,6]thiazacyclotetradecino[2,3-b]indole-9(2H)-carboxamide 1,1-dioxide]	11.8	> 53	–
COc1ccc(N(C)C(=O)[C@@H]2Cc3cccc(c3)C/C=C\c3[nH]c4ccccc4c3CC(=O)N2)cc1 [Example 13]	99	> 53	–
COc1ccc(N(C)C(=O)[C@@H]2Cc3cccc(c3)CCCCc3[nH]c4ccccc4c3CC(=O)N2)cc1 [Example 4]	79.6	> 48.7	–
CN(C(=O)[C@@H]1Cc2cc(F)cc(c2)CCCc2[nH]c3ccccc3c2CC(=O)N1)c1ccc(Cl)cc1 [Example 24, (4S)—N-(4-chlorophenyl)-8-fluoro-N-methyl-2-oxo-2,3,4,5,11,12,13,14-octahydro-1H-6,10-(metheno)azacyclopentadecino[5,4-b]indole-4-carboxamide]	100	47.1	–
COc1ccc(N(C)C(=O)[C@@H]2Cc3cccc(c3)CCCc3[nH]c4ccc(O)cc4c3CC(=O)N2)cc1 [Example 2]	102	> 46.4	–
CN(C(=O)N1Cc2cc(F)cc(c2)CCCc2[nH]c3ccccc3c2CC(=O)N1)c1ccc(Cl)cc1 [Example 31, N-(4-chlorophenyl)-8-fluoro-N-methyl-2-oxo-2,3,11,12,13,14-hexahydro-1H-6,10-(metheno)[1,2]diazacyclopentadecino[6,5-b]indole-4(5H)-carboxamide]	2.4	21.7	–
COc1ccc(N(C)C(=O)[C@@H]2Cc3cccc(c3)CC=Cc3[nH]c4ccccc4c3CC(=O)N2)cc1 (stereo in doubt) [Example 11, (4S,12Z)—N-(4-methoxyphenyl)-N-methyl-2-oxo-2,3,4,5,11,14-hexahydro-1H-6,10-(metheno)azacyclopentadecino[5,4-b]indole-4-carboxamide]	102	23.9	–
COc1ccc2[nH]c3c(c2n1)CC(=O)N[C@H](C(=O)N(C)c1ccc(Cl)cc1)Cc1cccc(c1)CC3 [Example 28, (14S)—N-(4-chlorophenyl)-2-methoxy-N-methyl-16-oxo-5,6,7,13,14,15,16,17-octahydro-12,8-(metheno)pyrido[2′,3′:4,5]pyrrolo[3,2-d]azacyclotetradecine-14-carboxamide]	63.9	18.3	–
COc1ccc(N(C)C(=O)[C@@H]2Cc3cccc(c3)S(=O)(=O)Cc3[nH]c4ccccc4c3CC(=O)N2)cc1 [Example 19, (9S)—N-(4-methoxyphenyl)-N-methyl-11-oxo-8,9,10,11,12,17-hexahydro-1H-7,3-(metheno)[1,7]thiazacyclotetradecino[3,4-b]indole-9-carboxamide 2,2-dioxide]	80.3	> 53	–
